{"source": "patent US5445951A", "about": "“Regioselective enzymatic deacylation of sucrose esters in anhydrous organic media” (priority 1993, dated 1995)", "key": {"[1]": {"tested_on": "proleather", "assay": "Nucleophile screening for proleather catalyzed deacetylation of SOA in diisopropyl ether", "assay_type": "biochemical, Bacillus subtilis", "details": "for % conv: 66 hrs", "description": "(§1) Nucleophile screening for alcalase, proleather or lipase AP 12 catalyzed deacetylation of SOA. A scintillation vial was charged successively with 100 mg of powdered enzyme prepared as described, 1.0 ml of 20 mM sucrose octaacetate (SOA) and 200 mM of the nucleophile dissolved in diisopropyl ether. Following a 5 sec sonication, the vial was incubated in a controlled-temperature shaker at 45° C. and 300 RPM for 66 hrs. A 200 μl aliquot of the reaction mixture was withdrawn and centrifuged. The supernatant was collected and evaporated under a stream of N2. The residue was reconstituted in 200 μl of acetonitrile and 10 μl of this solution was analyzed by HPLC. For screening concentration effects on enzyme activity, the same protocol was followed except the nucleophile concentration was varied from 0 to 2000 mM."}, "[2]": {"molecular_target": "T1, alcalase (Bacillus licheniformis, UniProt P00780)", "T1 construct": "purchased Novo Nordisk (gift)", "T1 sequence (P00780 106-379)": "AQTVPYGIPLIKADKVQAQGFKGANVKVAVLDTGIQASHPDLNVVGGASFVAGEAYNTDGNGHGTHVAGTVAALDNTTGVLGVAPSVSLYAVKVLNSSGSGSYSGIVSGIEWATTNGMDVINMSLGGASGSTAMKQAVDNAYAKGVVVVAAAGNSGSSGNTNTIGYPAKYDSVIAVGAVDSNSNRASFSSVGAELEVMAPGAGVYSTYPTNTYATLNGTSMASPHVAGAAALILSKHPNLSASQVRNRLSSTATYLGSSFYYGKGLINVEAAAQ", "assay": "Nucleophile screening for alcalase catalyzed deacetylation of SOA in diisopropyl ether", "assay_type": "biochemical", "details": "for increase in conversion relative to reaction with no added nucleophile: 200 mM", "description": "as §1"}, "[3]": {"tested_on": "lipase AP 12", "assay": "Nucleophile screening for lipase AP 12 catalyzed deacetylation of SOA in diisopropyl ether", "assay_type": "biochemical, Aspergillus niger", "details": "for % conv: 66 hrs", "description": "as §1"}, "[4]": {"tested_on": "lipase AY 30", "assay": "Effect of the solvent on lipase AY 30 SOA deacetylation", "assay_type": "biochemical, Candida cylindracea", "details": "lipase AY 30, solvent as labelled, 24 hrs", "description": "(§2) Identical enzyme catalyzed SOA deacetylations were run in numerous anhydrous solvents. After 24 hrs incubation an aliquot was analyzed by HPLC.\n(§3) Enzyme and Solvent Screening for SOA Deacetylation. A scintillation vial was charged successively with 100 mg of powdered enzyme as received or prepared as described and 1.0 ml of 20 mM sucrose octaacetate (SOA) dissolved in an organic solvent. Following a 5 sec sonication, the vial was incubated in a controlled-temperature shaker at 45° C. and 300 RPM for 24 hrs. A 200 μl aliquot of the reaction mixture was withdrawn and centrifuged. The supernatant was collected and evaporated under a stream of N2. The residue was reconstituted in 200 μl of acetonitrile and 10 μl of this solution was analyzed by HPLC."}, "[5]": {"tested_on": "lipase AY 30 deposited on Hyflo Super Cell", "assay": "Solvent effect on lipase AY 30 deposited on Hyflo Super Cell catalyzed deacetylation of SOA", "assay_type": "biochemical, Candida cylindracea", "details": "immobilized lipase AY 30, 24 hrs", "description": "(§4) Alcalase and lipase AY 30 were deposited on Hyflo Super Cell and used as catalysts for SOA deacetylation reactions in several anhydrous solvents.\n(§5) Enzyme immobilization. The pH of a solution of 900 mg of buffered alcalase in 18 ml of water was adjusted to 9.0 with dilute NaOH. Hyflo super cell (6 g) was added and the slurry thoroughly mixed. […] Lipase AY 30 was immobilized in the same manner except that the protein solution was adjusted to pH 7.0 with sodium phosphate.\nas §3"}, "[6]": {"details": "n-octanol/water; from Laane et al.; cited from earlier work"}, "[7]": {"molecular_target": "T1, alcalase", "assay": "Solvent effect on alcalase catalyzed deacetylation of SOA", "assay_type": "biochemical", "details": "24 hrs", "description": "as §2\nEnzyme Precipitation. Alcalase was prepared by adding 37.5 ml cold acetone (-20° C.) to 25 ml of alcalase solution as supplied by Novo. The aqueous acetone was decanted and the residue dissolved in 25 ml of pH 9.0 glycine--NaOH buffer. The pH of this solution was adjusted to 9.0 with a few drops of dilute NaOH solution. Cold acetone (37.5 ml at -20° C.) was added to the buffered alcalase solution and the precipitate collected by filtration on a medium porosity glass funnel and dried overnight at 2 millitorr. The resulting pellet was ground to a fine powder and stored at 4° C. over saturated aqueous potassium carbonate (RH: 43%) for 24 hrs.\nas §3"}, "[8]": {"tested_on": "alcalase deposited on Hyflo Super Cell", "assay": "Solvent effect on alcalase deposited on Hyflo Super Cell catalyzed deacetylation of SOA", "assay_type": "biochemical, Bacillus licheniformis", "details": "immobilized alcalase, 4 hour incubation", "description": "as §4, §5\nas §3, with “Following a 5 sec sonication, the vial was incubated in a controlled-temperature shaker at 45° C. and 300 RPM for 24 hrs.” left out"}, "[9]": {"tested_on": "proleather", "assay": "Solvent effect on proleather catalyzed deacetylation of SOA", "assay_type": "biochemical, Bacillus subtilis", "details": "24 hrs", "description": "as §2\n(§6) The pH of commercial powdered enzymes was adjusted in the following way: The enzyme (3 g) was dissolved in 25 ml of an appropriate buffer and the pH adjusted with dilute NaOH or citric/phosphoric acid solution. Cold acetone (37.5 ml at -20° C.) was added and the precipitate collected on a medium porosity glass funnel and dried overnight at 2 millitorr. The protein pellet was ground to a fine powder and equilibrated at 4° C. over saturated aqueous potassium carbonate (RH: 43%) for 24 hrs.\nas §3"}, "[10]": {"tested_on": "lipase AP 12", "assay": "Solvent effect on lipase AP 12 catalyzed deacetylation of SOA", "assay_type": "biochemical, Aspergillus niger", "details": "lipase AP 12, solvent as labelled, 24 hrs", "description": "as §2, §6, §3"}, "[11]": {"details": "nucleophile 200 mM, peak height ratio 1'-OH / 6'-OH heptaacetate"}, "[12]": {"details": "lipase AP 12, nucleophile 200 mM"}, "[13]": {"details": "methanol 20 mM, peak height ratio"}, "[14]": {"details": "methanol 50 mM, peak height ratio"}, "[15]": {"details": "methanol 100 mM, peak height ratio"}, "[16]": {"details": "methanol 200 mM (Table 10), peak height ratio"}, "[17]": {"details": "methanol 500 mM, peak height ratio"}, "[18]": {"details": "methanol 1000 mM, peak height ratio"}, "[19]": {"details": "methanol 2000 mM, peak height ratio"}, "[20]": {"details": "total of 1'-OH and 6'-OH heptaacetates"}}}
{"compound": "CC(C)NC(C)C", "note": "[diisopropylamine]", "values": [{"measurement": "% conv", "setting": "[1]; nucleophile 200 mM", "value": 37.3, "unit": "%"}, {"measurement": "regiochem", "setting": "[1]; [11]", "value": 4.9}, {"measurement": "increase in conversion relative to reaction with no added nucleophile", "setting": "[2]", "value": "at least 25%"}, {"measurement": "regiochem", "setting": "[2]; [11]", "value": 9.5}, {"measurement": "% conv", "setting": "[3]; [12]", "value": 3.2, "unit": "%"}]}
{"compound": "CO", "note": "[methanol]", "values": [{"measurement": "increase in conversion", "setting": "[1]; 1.0M methanol", "value": 120, "unit": "%"}, {"measurement": "% conv", "setting": "[1]; methanol 20 mM", "value": 38.1, "unit": "%"}, {"measurement": "regiochem", "setting": "[1]; [13]", "value": 4.8}, {"measurement": "% conv", "setting": "[1]; methanol 50 mM", "value": 41.2, "unit": "%"}, {"measurement": "regiochem", "setting": "[1]; [14]", "value": 5.9}, {"measurement": "% conv", "setting": "[1]; methanol 100 mM", "value": 44.6, "unit": "%"}, {"measurement": "regiochem", "setting": "[1]; [15]", "value": 6.6}, {"measurement": "% conv", "setting": "[1]; methanol 200 mM (Table 10)", "value": 49.4, "unit": "%"}, {"measurement": "regiochem", "setting": "[1]; [16]", "value": 7.9}, {"measurement": "% conv", "setting": "[1]; methanol 500 mM", "value": 65.4, "unit": "%"}, {"measurement": "regiochem", "setting": "[1]; [17]", "value": 12.4}, {"measurement": "% conv", "setting": "[1]; methanol 1000 mM", "value": 71.1, "unit": "%"}, {"measurement": "regiochem", "setting": "[1]; [18]", "value": 12.6}, {"measurement": "% conv", "setting": "[1]; methanol 2000 mM", "value": 66.8, "unit": "%"}, {"measurement": "regiochem", "setting": "[1]; [19]", "value": 11.5}, {"measurement": "% conv", "setting": "[1]; nucleophile 200 mM", "value": 53.8, "unit": "%"}, {"measurement": "regiochem", "setting": "[1]; [11]", "value": 8.4}, {"measurement": "increase in conversion relative to reaction with no added nucleophile", "setting": "[2]", "value": "at least 25%"}, {"measurement": "enhancement in overall conversion", "setting": "[2]; 0.5M methanol, in words", "value": "modest enhancements in overall conversion"}, {"measurement": "regiochem", "setting": "[2]; [13]", "value": 7.4}, {"measurement": "regiochem", "setting": "[2]; [14]", "value": 8.3}, {"measurement": "regiochem", "setting": "[2]; [15]", "value": 8.1}, {"measurement": "regiochem", "setting": "[2]; [16]", "value": 8.6}, {"measurement": "regiochem", "setting": "[2]; [17]", "value": 8.2}, {"measurement": "regiochem", "setting": "[2]; [18]", "value": 5.6}, {"measurement": "regiochem", "setting": "[2]; [19]", "value": 7.1}, {"measurement": "regiochem", "setting": "[2]; [11]", "value": 8.6}, {"measurement": "enhancement in overall conversion", "setting": "[3]; lipase AP 12, 1.0M methanol, in words", "value": "modest enhancements in overall conversion"}, {"measurement": "% conv", "setting": "[3]; lipase AP 12, methanol 20 mM", "value": 22.4, "unit": "%"}, {"measurement": "% conv", "setting": "[3]; lipase AP 12, methanol 50 mM", "value": 23.5, "unit": "%"}, {"measurement": "% conv", "setting": "[3]; lipase AP 12, methanol 100 mM", "value": 25.7, "unit": "%"}, {"measurement": "% conv", "setting": "[3]; lipase AP 12, methanol 200 mM (Table 10)", "value": 24.0, "unit": "%"}, {"measurement": "% conv", "setting": "[3]; lipase AP 12, methanol 500 mM", "value": 31.3, "unit": "%"}, {"measurement": "% conv", "setting": "[3]; lipase AP 12, methanol 1000 mM", "value": 33.4, "unit": "%"}, {"measurement": "% conv", "setting": "[3]; lipase AP 12, methanol 2000 mM", "value": 21.3, "unit": "%"}, {"measurement": "% conv", "setting": "[3]; [12]", "value": 28.2, "unit": "%"}]}
{"compound": "OCCc1ccccc1", "note": "[phenethyl alcohol]", "values": [{"measurement": "% conv", "setting": "[1]; nucleophile 200 mM", "value": 51.5, "unit": "%"}, {"measurement": "regiochem", "setting": "[1]; [11]", "value": 5.3}, {"measurement": "regiochem", "setting": "[2]; [11]", "value": 7.3}, {"measurement": "% conv", "setting": "[3]; [12]", "value": 25.7, "unit": "%"}]}
{"compound": "CCCCO", "note": "[butanol, n-butanol]", "values": [{"measurement": "% conv", "setting": "[1]; nucleophile 200 mM", "value": 44.4, "unit": "%"}, {"measurement": "regiochem", "setting": "[1]; [11]", "value": 4.8}, {"measurement": "regiochem", "setting": "[2]; [11]", "value": 7.4}, {"measurement": "% conv", "setting": "[3]; [12]", "value": 25.7, "unit": "%"}]}
{"compound": "CCCOCCC", "note": "[dipropyl ether]", "values": [{"measurement": "SOA", "setting": "[4]", "value": 51.6, "unit": "%"}, {"measurement": "SheptaA", "setting": "[4]", "value": 32.4, "unit": "%"}, {"measurement": "ShexaA", "setting": "[4]", "value": 16.0, "unit": "%"}, {"measurement": "SOA", "setting": "[5]", "value": 93.4, "unit": "%"}, {"measurement": "SheptaA", "setting": "[5]", "value": 6.6, "unit": "%"}, {"measurement": "log P", "setting": "[6]", "value": 1.9}, {"measurement": "SheptaA", "setting": "[7]; [20]", "value": 14.5, "unit": "%"}, {"measurement": "SOA", "setting": "[7]; solvent as labelled", "value": 83.9, "unit": "%"}, {"measurement": "ShexaA", "setting": "[7]; solvent as labelled", "value": 1.6, "unit": "%"}, {"measurement": "SOA", "setting": "[8]", "value": 92.9, "unit": "%"}, {"measurement": "ShexaA", "setting": "[8]", "value": 0.6, "unit": "%"}, {"measurement": "SheptaA", "setting": "[8]; [20]", "value": 6.5, "unit": "%"}, {"measurement": "SheptaA", "setting": "[9]; [20]", "value": 21.5, "unit": "%"}, {"measurement": "SOA", "setting": "[9]; solvent as labelled", "value": 75.2, "unit": "%"}, {"measurement": "ShexaA", "setting": "[9]; solvent as labelled", "value": 3.3, "unit": "%"}, {"measurement": "SOA", "setting": "[10]", "value": 81.8, "unit": "%"}, {"measurement": "SheptaA", "setting": "[10]", "value": 15.9, "unit": "%"}, {"measurement": "ShexaA", "setting": "[10]", "value": 2.3, "unit": "%"}]}
{"compound": "CCO", "note": "[ethanol]", "values": [{"measurement": "% conv", "setting": "[1]; nucleophile 200 mM", "value": 47.7, "unit": "%"}, {"measurement": "regiochem", "setting": "[1]; [11]", "value": 5.6}, {"measurement": "regiochem", "setting": "[2]; [11]", "value": 7.5}, {"measurement": "% conv", "setting": "[3]; [12]", "value": 26.7, "unit": "%"}]}
